Results: patent US12319676B2, “Substituted amide compounds useful as farnesoid X receptor modulators” (BRISTOL-MYERS SQUIBB COMPANY, priority 2019, dated 2025)

Molecular target: T1, human FXR (Homo sapiens, UniProt Q96RI1)
T1 construct: expressed in transfected cells; host or cells: HEK293 cells stably carrying a 5xGal4 response element-luciferase reporter, transiently transfected with pcDNA3.1-Gal4-FXR
T1 sequence (Q96RI1 262-486 limits assumed): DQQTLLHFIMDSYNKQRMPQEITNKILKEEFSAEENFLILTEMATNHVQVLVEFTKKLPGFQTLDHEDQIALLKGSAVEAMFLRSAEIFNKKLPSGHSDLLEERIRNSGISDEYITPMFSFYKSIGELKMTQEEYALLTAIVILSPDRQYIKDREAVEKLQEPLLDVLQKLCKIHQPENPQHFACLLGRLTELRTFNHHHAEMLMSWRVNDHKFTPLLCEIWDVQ
Test: transient human FXR/Gal4-luciferase reporter assay
Format: cell-based
Conditions: Gal4-hFXR fusion construct, luciferase reporter in HEK293 cells; overnight incubation; response as percentage of 8 μM GW-4064 control
Outline: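 HEK293 cells stably carrying a 5×Gal4-response-element firefly luciferase reporter were transiently transfected with a Gal4 DBD-human FXR LBD fusion, then treated overnight with compounds at 37 °C. Steady-Glo luminescence, minus DMSO background, was expressed as percent of the response to 8 μM GW-4064.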

SMILES	EC50 [nM]
O=C(N(CC12CCC(c3ccc(C(F)(F)F)cn3)(CC1)CC2)c1cccc(Nc2ncc(OC(F)F)cn2)c1)C12CC(F)(C1)C2 [Example 106, N-(3-((5-(difluoromethoxy)pyrimidin-2-yl)amino)phenyl)-3-fluoro-N-((4-(5-(trifluoromethyl)pyridin-2-yl)bicyclo[.2.2.2]octan-1-yl)methyl)bicyclo[1.1.1]pentane-1-carboxamide]	132
O=C(N(CC12CCC(c3ccc(C(F)(F)F)cn3)(CC1)CC2)c1cccc(Nc2ccc(OC(F)F)cc2)c1)C12CC(F)(C1)C2 [Example 107, N-(3-((4-(difluoromethoxy)phenyl)amino)phenyl)-3-fluoro-N-((4-(5-(trifluoromethyl)pyridin-2-yl)bicyclo[2.2.2]octan-1-yl)methyl)bicyclo[1.1.1]pentane-1-carboxamide]	484
O=C(N(CC12CCC(c3ccc(C(F)(F)F)cn3)(CC1)CC2)c1cccc(Nc2ccc(OC(F)F)cn2)c1)C12CC(F)(C1)C2 [Example 108, N-(3-((5-(difluoromethoxy)pyridin-2-yl)amino)phenyl)-3-fluoro-N-((4-(5-(trifluoromethyl)pyridin-2-yl)bicyclo[2.2.2]octan-1-yl)methyl)bicyclo[1.1.1]pentane-1-carboxamide]	629
CC(C)(C)c1nc(C23CCC(CN(C(=O)C45CC(F)(C4)C5)c4cccc(OCC#N)c4)(CC2)CC3)no1 [Example 111, N-((4-(5-(tert-butyl)-1,2,4-oxadiazol-3-yl)bicyclo[2.2.2]octan-1-yl)methyl)-N-(3-(cyanomethoxy)phenyl)-3-fluorobicyclo[1.1.1]pentane-1-carboxamide]	618
CC(C)(Oc1cccc(N(CC23CCC(c4noc(C(C)(C)C)n4)(CC2)CC3)C(=O)C23CC(F)(C2)C3)c1)C(=O)O [Example 113, 2-(3-(N-((4-(5-(tert-butyl)-1,2,4-oxadiazol-3-yl)bicyclo[2.2.2]octan-1-yl)methyl)-3-fluorobicyclo[1.1.1]pentane-1-carboxamido)phenoxy)-2-methylpropanoic acid]	2000
N#Cc1cccc(N(CC23CCC(c4noc(C(F)(F)F)n4)(CC2)CC3)C(=O)[C@H]2C[C@](O)(C(F)(F)F)C2)c1 [Example 115, (1S,3S)-N-(3-cyanophenyl)-3-hydroxy-3-(trifluoromethyl)-N-((4-(5-(trifluoromethyl)-1,2,4-oxadiazol-3-yl)bicyclo[2.2.2]octan-1-yl)methyl)cyclobutane-1-carboxamide]	436
N#Cc1cccc(N(CC23CCC(c4noc(C(F)(F)F)n4)(CC2)CC3)C(=O)C2CCOCC2)c1 [Example 116, N-(3-cyanophenyl)-N-((4-(5-(trifluoromethyl)-1,2,4-oxadiazol-3-yl)bicyclo[2.2.2]octan-1-yl)methyl)tetrahydro-2H-pyran-4-carboxamide]	518
C[C@]1(O)C[C@@H](C(=O)N(CC23CCC(c4noc(C(F)(F)F)n4)(CC2)CC3)c2cccc(C#N)c2)C1 [Example 117, (1S,3S)-N-(3-cyanophenyl)-3-hydroxy-3-methyl-N-((4-(5-(trifluoromethyl)-1,2,4-oxadiazol-3-yl)bicyclo[2.2.2]octan-1-yl)methyl)cyclobutane-1-carboxamide]	1350
CC(C)(C)c1nc(C23CCC(CN(C(=O)C45CC(F)(C4)C5)c4cccc(Oc5ncc(OC(F)F)cn5)c4)(CC2)CC3)no1 [Example 118, N-((4-(5-(tert-butyl)-1,2,4-oxadiazol-3-yl)bicyclo[2.2.2]octan-1-yl)methyl)-N-(3-((5-(difluoromethoxy)pyrimidin-2-yl)oxy)phenyl)-3-fluorobicyclo[1.1.1]pentane-1-carboxamide]	361
CC(C)(C)c1nc(C23CCC(CN(C(=O)C45CC(F)(C4)C5)c4cccc(Oc5ccc(OC(F)F)cn5)c4)(CC2)CC3)no1 [Example 119, N-((4-(5-(tert-butyl)-1,2,4-oxadiazol-3-yl)bicyclo[2.2.2]octan-1-yl)methyl)-N-(3-((5-(difluoromethoxy)pyridin-2-yl)oxy)phenyl)-3-fluorobicyclo[1.1.1]pentane-1-carboxamide]	536
CC(F)(F)c1nc(C23CCC(CN(C(=O)C45CC(F)(C4)C5)c4cccc(C(=O)O)c4)(CC2)CC3)no1 [Example 120, 3-(N-((4-(5-(1,1-difluoroethyl)-1,2,4-oxadiazol-3-yl)bicyclo[2.2.2]octan-1-yl)methyl)-3-fluorobicyclo[1.1.1]pentane-1-carboxamido)benzoic acid]	4000
CC(C)(C)c1noc(C23CCC(CN(C(=O)C45CC(F)(C4)C5)c4ccc(F)c(C(N)=O)c4)(CC2)CC3)n1 [Example 121, N-((4-(3-(tert-butyl)-1,2,4-oxadiazol-5-yl)bicyclo[2.2.2]octan-1-yl)methyl)-N-(3-carbamoyl-4-fluorophenyl)-3-fluorobicyclo[1.1.1]pentane-1-carboxamide]	412
CC(C)Oc1cccc(N(CC23CCC(c4nc(C(C)(C)C)no4)(CC2)CC3)C(=O)C23CC(F)(C2)C3)c1 [Example 124, N-((4-(3-(tert-butyl)-1,2,4-oxadiazol-5-yl)bicyclo[2.2.2]octan-1-yl)methyl)-3-fluoro-N-(3-isopropoxyphenyl)bicyclo[1.1.1]pentane-1-carboxamide]	2000
CC(C)Oc1cccc(N(CC23CCC(c4noc(C(C)(F)F)n4)(CC2)CC3)C(=O)[C@H]2C[C@@](C)(O)C2)c1 [Example 125, (1S,3S)—N-((4-(5-(1,1-difluoroethyl)-1,2,4-oxadiazol-3-yl)bicyclo[2.2.2]octan-1-yl)methyl)-3-hydroxy-N-(3-isopropoxyphenyl)-3-methylcyclobutane-1-carboxamide]	1520
CC(C)Oc1cccc(N(CC23CCC(c4noc(C(C)(F)F)n4)(CC2)CC3)C(=O)[C@H]2C[C@](O)(C(F)(F)F)C2)c1 [Example 126, (1S,3S)-N-((4-(5-(1,1-difluoroethyl)-1,2,4-oxadiazol-3-yl)bicyclo[2..2.2]octan-1-yl)methyl)-3-hydroxy-N-(3-isopropoxyphenyl)-3-(trifluoromethyl)cyclobutane-1-carboxamide]	610
COc1cccc(N(CC23CCC(c4noc(C(C)(F)F)n4)(CC2)CC3)C(=O)C23CC(F)(C2)C3)c1 [Example 129, N-((4-(5-(1,1-difluoroethyl)-1,2,4-oxadiazol-3-yl)bicyclo[2.2.2]octan-1-yl)methyl)-3-fluoro-N-(3-methoxyphenyl)bicyclo[1.1.1]pentane-1-carboxamide]	73

The remaining compounds from weak to strong by EC50, led by results:

EC50 [nM]	SMILES
4000	CC(C)(C)c1noc(C23CCC(CN(C(=O)C45CC(F)(C4)C5)c4ccc(F)c(C(C)(C)O)c4)(CC2)CC3)n1 [Example 128, N-((4-(3-(tert-butyl)-1,2,4-oxadiazol-5-yl)bicyclo[2.2.2]octan-1-yl)methyl)-3-fluoro-N-(4-fluoro-3-(2-hydroxypropan-2-yl)phenyl)bicyclo[1.1.1]pentane-1-carboxamide]
2000	CC(C)Oc1cccc(N(CC23CCC(c4nc(C(C)(C)C)no4)(CC2)CC3)C(=O)[C@H]2C[C@](O)(C(F)(F)F)C2)c1 [Example 123, (1S,3S)—N-((4-(3-(tert-butyl)-1,2,4-oxadiazol-5-yl)bicyclo[2.2.2]octan-1-yl)methyl)-3-hydroxy-N-(3-isopropoxyphenyl)-3-(trifluoromethyl)cyclobutane-1-carboxamide]
292	O=C(N(CC12CCC(c3ccc(C(F)(F)F)cn3)(CC1)CC2)c1cccc(Nc2ccc(C3CC3)cn2)c1)C12CC(F)(C1)C2 [Example 109, N-(3-((5-cyclopropylpyridin-2-yl)amino)phenyl)-3-fluoro-N-((4-(5-(trifluoromethyl)pyridin-2-yl)bicyclo[2..2.2]octan-1-yl)methyl)bicyclo[1.1.1]pentane-1-carboxamide]
156	CC(C)Oc1cccc(N(CC23CCC(c4noc(C(C)(F)F)n4)(CC2)CC3)C(=O)C23CC(F)(C2)C3)c1 [Example 127, N-((4-(5-(1,1-difluoroethyl)-1,2,4-oxadiazol-3-yl)bicyclo[2.2.2]octan-1-yl)methyl)-3-fluoro-N-(3-isopropoxyphenyl)bicyclo[1.1.1]pentane-1-carboxamide]
123	CCNC(=O)c1cc(N(CC23CCC(c4nc(C(C)(C)C)no4)(CC2)CC3)C(=O)C23CC(F)(C2)C3)ccc1F [Example 122, N-((4-(3-(tert-butyl)-1,2,4-oxadiazol-5-yl)bicyclo[2.2.2]octan-1-yl)methyl)-N-(3-(ethylcarbamoyl)-4-fluorophenyl)-3-fluorobicyclo[1.1.1]pentane-1-carboxamide]
80	N#Cc1cccc(N(CC23CCC(c4noc(C(F)(F)F)n4)(CC2)CC3)C(=O)C23CC(F)(C2)C3)c1 [Example 114, N-(3-cyanophenyl)-3-fluoro-N-((4-(5-(trifluoromethyl)-1,2,4-oxadiazol-3-yl)bicyclo[2.2.2]octan-1-yl)methyl)bicyclo[1.1.1]pentane-1-carboxamide]
65	CC(C)(C)c1nc(C23CCC(CN(C(=O)C45CC(F)(C4)C5)c4cccc(O)c4)(CC2)CC3)no1 [Example 110, N-((4-(5-(tert-butyl)-1,2,4-oxadiazol-3-yl)bicyclo[2.2.2]octan-1-yl)methyl)-3-fluoro-N-(3-hydroxyphenyl)bicyclo[1.1.1]pentane-1-carboxamide]
63	CC(C)(O)COc1cccc(N(CC23CCC(c4noc(C(C)(C)C)n4)(CC2)CC3)C(=O)C23CC(F)(C2)C3)c1 [Example 112, N-((4-(5-(tert-butyl)-1,2,4-oxadiazol-3-yl)bicyclo[2.2.2]octan-1-yl)methyl)-3-fluoro-N-(3-(2-hydroxy-2-methylpropoxy)phenyl)bicyclo[1.1.1]pentane-1-carboxamide]
